Measured values published in PubChem BioAssay (NCI).
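Compound exposure: 48 hours, 5 concentrations, 96-well plates. Abbreviation: GI50, concentration required for 50% inhibition of growth. The concentration for full growth arrest is given as TGI.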

Key:
Assay in all cases: NCI-60 cell line screen, 48 h
NCI/ADR-RES ovarian = test system: NCI/ADR-RES ovarian
RXF 393 renal = test system: RXF 393 renal
KM12 colon = test system: KM12 colon
UO-31 renal = test system: UO-31 renal
SN12C renal = test system: SN12C renal
A498 renal = test system: A498 renal
SF-268 CNS = test system: SF-268 CNS
PC-3 prostate = test system: PC-3 prostate
K-562 leukemia = test system: K-562 leukemia
NCI-H460 lung = test system: NCI-H460 lung
HOP-92 NSCLC = test system: HOP-92 NSCLC
LOX IMVI melanoma = test system: LOX IMVI melanoma
HS 578T breast = test system: HS 578T breast
DU-145 prostate = test system: DU-145 prostate
SNB-75 CNS = test system: SNB-75 CNS
MCF7 breast = test system: MCF7 breast
RPMI-8226 leukemia = test system: RPMI-8226 leukemia
OVCAR-3 ovarian = test system: OVCAR-3 ovarian
HT29 colon = test system: HT29 colon
SK-MEL-28 melanoma = test system: SK-MEL-28 melanoma
HCT-15 colon = test system: HCT-15 colon
MOLT-4 leukemia = test system: MOLT-4 leukemia
CCRF-CEM leukemia = test system: CCRF-CEM leukemia
HOP-62 NSCLC = test system: HOP-62 NSCLC
A549 NSCLC = test system: A549 NSCLC
ACHN renal = test system: ACHN renal
OVCAR-4 ovarian = test system: OVCAR-4 ovarian
SR leukemia = test system: SR leukemia
SF-539 CNS = test system: SF-539 CNS
NCI-H23 lung = test system: NCI-H23 lung
SW-620 colon = test system: SW-620 colon
CAKI-1 renal = test system: CAKI-1 renal
NCI-H522 lung = test system: NCI-H522 lung
SNB-19 CNS = test system: SNB-19 CNS
NCI-H226 lung = test system: NCI-H226 lung
UACC-62 melanoma = test system: UACC-62 melanoma
MDA-MB-231 breast = test system: MDA-MB-231 breast
COLO 205 colon = test system: COLO 205 colon
MALME-3M melanoma = test system: MALME-3M melanoma
HCC-2998 colon = test system: HCC-2998 colon
OVCAR-8 ovarian = test system: OVCAR-8 ovarian
HL-60(TB) leukemia = test system: HL-60(TB) leukemia
TK-10 renal = test system: TK-10 renal
SK-OV-3 ovarian = test system: SK-OV-3 ovarian
U251 CNS = test system: U251 CNS
SK-MEL-2 melanoma = test system: SK-MEL-2 melanoma
EKVX NSCLC = test system: EKVX NSCLC
SK-MEL-5 melanoma = test system: SK-MEL-5 melanoma
SF-295 CNS = test system: SF-295 CNS
T-47D breast = test system: T-47D breast
UACC-257 melanoma = test system: UACC-257 melanoma
MDA-MB-435 = test system: MDA-MB-435
OVCAR-5 ovarian = test system: OVCAR-5 ovarian
IGROV1 ovarian = test system: IGROV1 ovarian

In the case of `COc1ccc(/C(=C2/O[C@@H]([C@H]3COC(C)(C)O3)[C@H]3OC(C)(C)O[C@@H]23)c2cc(OC)c(OC)c(OC)c2)cc1O`, the GI50 (NCI/ADR-RES ovarian) is reported as 3.11 µM, the TGI (NCI/ADR-RES ovarian) is reported as 8.85 µM and the GI50 (RXF 393 renal) is reported as 2.35 µM. The TGI (RXF 393 renal) was 5.07 µM, the GI50 (KM12 colon) was 4.1 µM and the TGI (KM12 colon) was 17.8 µM. The GI50 (UO-31 renal) was 21.8 µM, the TGI (UO-31 renal) was 70.4 µM and the GI50 (SN12C renal) was 8.9 µM. For the same compound, the TGI (SN12C renal) was over 100 µM, the GI50 (A498 renal) was 32.1 µM and the TGI (A498 renal) was 97.4 µM. It also gave a GI50 (SF-268 CNS) of 7.95 µM, a TGI (SF-268 CNS) of 53.6 µM and a GI50 (PC-3 prostate) of 4.12 µM. It also gave a TGI (PC-3 prostate) of over 100 µM, a GI50 (K-562 leukemia) of 6.28 µM and a TGI (K-562 leukemia) of over 100 µM. For the same compound, the GI50 (NCI-H460 lung) was 29.3 µM, the TGI (NCI-H460 lung) was over 100 µM and the GI50 (HOP-92 NSCLC) was 4 µM. The TGI (HOP-92 NSCLC) was 38.3 µM, the GI50 (LOX IMVI melanoma) was 5.93 µM and the TGI (LOX IMVI melanoma) was 22.8 µM. The GI50 (HS 578T breast) was 6.97 µM, the TGI (HS 578T breast) was 67.9 µM and the GI50 (DU-145 prostate) was 3.93 µM. It also gave a TGI (DU-145 prostate) of over 100 µM, a GI50 (SNB-75 CNS) of 6.36 µM and a TGI (SNB-75 CNS) of over 100 µM. For the same compound, the GI50 (MCF7 breast) was 12.3 µM, the TGI (MCF7 breast) was over 100 µM and the GI50 (RPMI-8226 leukemia) was 4.82 µM. For the same compound, the TGI (RPMI-8226 leukemia) was 34 µM, the GI50 (OVCAR-3 ovarian) was 4.84 µM and the TGI (OVCAR-3 ovarian) was 43.3 µM. The GI50 (HT29 colon) was 26.5 µM, the TGI (HT29 colon) was 52 µM and the GI50 (SK-MEL-28 melanoma) was 10.6 µM. The TGI (SK-MEL-28 melanoma) was over 100 µM, the GI50 (HCT-15 colon) was 4.06 µM and the TGI (HCT-15 colon) was 39.7 µM. The GI50 (MOLT-4 leukemia) was 24.2 µM, the TGI (MOLT-4 leukemia) was over 100 µM and the GI50 (CCRF-CEM leukemia) was 5.45 µM. The TGI (CCRF-CEM leukemia) was over 100 µM, the GI50 (HOP-62 NSCLC) was 10.9 µM and the TGI (HOP-62 NSCLC) was 34.7 µM. The GI50 (A549 NSCLC) was 22.7 µM, the TGI (A549 NSCLC) was over 100 µM and the GI50 (ACHN renal) was 15.4 µM. It also gave a TGI (ACHN renal) of over 100 µM, a GI50 (OVCAR-4 ovarian) of 37.5 µM and a TGI (OVCAR-4 ovarian) of over 100 µM. The GI50 (SR leukemia) was 6.1 µM, the TGI (SR leukemia) was over 100 µM and the GI50 (SF-539 CNS) was 3.15 µM. It also gave a TGI (SF-539 CNS) of 8.75 µM, a GI50 (NCI-H23 lung) of 21.8 µM and a TGI (NCI-H23 lung) of 74.9 µM. For the same compound, the GI50 (SW-620 colon) was 7.28 µM, the TGI (SW-620 colon) was over 100 µM and the GI50 (CAKI-1 renal) was 14.8 µM. The TGI (CAKI-1 renal) was 42.2 µM, the GI50 (NCI-H522 lung) was 2.95 µM and the TGI (NCI-H522 lung) was 7.54 µM. The GI50 (SNB-19 CNS) was 5.33 µM, the TGI (SNB-19 CNS) was over 100 µM and the GI50 (NCI-H226 lung) was 64.7 µM. It also gave a TGI (NCI-H226 lung) of over 100 µM, a GI50 (UACC-62 melanoma) of 22.9 µM and a TGI (UACC-62 melanoma) of 57.6 µM. For the same compound, the GI50 (MDA-MB-231 breast) was 9.71 µM, the TGI (MDA-MB-231 breast) was 50.1 µM and the GI50 (COLO 205 colon) was 27.3 µM. The TGI (COLO 205 colon) was 63.7 µM, the GI50 (MALME-3M melanoma) was 9.96 µM and the TGI (MALME-3M melanoma) was over 100 µM. For the same compound, the GI50 (HCC-2998 colon) was 31.1 µM, the TGI (HCC-2998 colon) was 80.4 µM and the GI50 (OVCAR-8 ovarian) was 8.56 µM. It also gave a TGI (OVCAR-8 ovarian) of over 100 µM, a GI50 (HL-60(TB) leukemia) of 6.48 µM and a TGI (HL-60(TB) leukemia) of 56.8 µM. The GI50 (TK-10 renal) was 36.6 µM, the TGI (TK-10 renal) was 86.3 µM and the GI50 (SK-OV-3 ovarian) was 12.6 µM. For the same compound, the TGI (SK-OV-3 ovarian) was 91.7 µM, the GI50 (U251 CNS) was 5 µM and the TGI (U251 CNS) was 43.1 µM. It also gave a GI50 (SK-MEL-2 melanoma) of 3.26 µM, a TGI (SK-MEL-2 melanoma) of 8.44 µM and a GI50 (EKVX NSCLC) of 37.4 µM. It also gave a TGI (EKVX NSCLC) of over 100 µM, a GI50 (SK-MEL-5 melanoma) of 4.12 µM and a TGI (SK-MEL-5 melanoma) of 15 µM. For the same compound, the GI50 (SF-295 CNS) was 18.7 µM, the TGI (SF-295 CNS) was 43.9 µM and the GI50 (T-47D breast) was 44.3 µM. It also gave a TGI (T-47D breast) of over 100 µM, a GI50 (UACC-257 melanoma) of 39.4 µM and a TGI (UACC-257 melanoma) of over 100 µM. It also gave a GI50 (MDA-MB-435) of 2.15 µM, a TGI (MDA-MB-435) of 5.54 µM and a GI50 (OVCAR-5 ovarian) of 59.6 µM. It also gave a TGI (OVCAR-5 ovarian) of over 100 µM, a GI50 (IGROV1 ovarian) of 45.1 µM and a TGI (IGROV1 ovarian) of over 100 µM.
